Assay results reported in US20260325504A1, “Genetically Engineered Human Pituitary Corticotroph Tumor Organoids Exhibit Divergent Responses to Selective Glucocorticoid Receptor Modulators” (Corcept Therapeutics Incorporated, priority 2022, published 2026).
“Also recorded” adds a separate entry of the source.

Assays:
Type in all cases: cell-based, human
SSTR5 = test: Spectral flow cytometry, SSTR5 positive cells, iPSCUSP48MV organoids; conditions: 48 h, FIGS. 8B, F
Method: (§1) Sonic Hedgehog (SHH) was withdrawn from the organoid growth media 16 hours prior to treatment. The experimental treatment groups included: vehicle (Veh), mifepristone (500 nM, Selleckchem S2606), GANT61 (5 μM, Stemcell Technologies 73692), ketoconazole (Keto, 10 μM, Selleckchem S1353), pasireotide (Pas, 100 nM, Target Mol TP2207-SB001), octreotide (Oct, 100 nM, Selleckchem P1017), mifepristone plus GANT61, mifepristone plus Keto, mifepristone plus Pas, relacorilant (500 nM, Corcept Therapeutics CORT125134), relacorilant plus Pas, relacorilant plus Oct, or dexamethasone (Dexa, 100 nM, SIGMA S4902). In the combination treatments, cultures were pretreated with the GANT61, Keto, Pas or Oct for 2 hours prior to treatment with mifepristone or Rela. PitNET tissue derived organoids hPITO36, hPITO37, hPITO38, hPITO39, and hPITO40 were treated with the following experimental conditions: Vehicle (1), pasireotide (2), relacorilant (3), relacorilant & pasireotide (4), mifepristone (5), mifepristone & pasireotide (6). The IC50 values used for each hPITO line for each drug were determined based on dose responses (FIG. 12). All organoid cultures were treated for 48 hours prior to analysis.
The multicolor flow cytometry antibody panel was designed using the Cytek® Full Spectrum Viewer online tool to calculate the similarity index. Organoids were harvested in cold Serum-Free Defined Medium media and incubated with Zombie (BioLegend 423107, 1:100) for 15 minutes in the dark at room temperature, followed by incubation with fluorochrome-conjugated/unconjugated primary surface or cytoplasmic antibodies (Table 6) at 4° C. for 30 minutes. Cells were then washed with Cell Staining Buffer (BioLegend 420-201) and incubated at 4° C. for 30 minutes with secondary antibodies (Table 6). Cells were fixed using Cytofix/Cytoperm™ Fixation/Permeabilization Solution (BD Biosciences 554714) and washed with Fixation/Permeabilization wash buffer according to the recommended protocol. […] Data was acquired using the Cytek® Aurora, analyzed using Cytobank Premium software (Beckman Coulter).

ACTH = test: Spectral flow cytometry, ACTH positive cells, hPITOs
Excerpt: 1.3 Generation and Culture of Human PitNET Tissue Organoids (hPITOs)
Patients undergoing planned transsphenoidal surgery for PitNETs were identified in the outpatient neuroendocrinology and neurosurgery clinics and collected by the St. Joseph's Hospital and Barrow Neurological Institute Biobank under the collection protocol PHXA-05TS038, and outcomes data protocol PHXA-0004-72-29 with approval of the Institutional Review Board (IRB) and patient consent. De-identified samples were shipped in collection and transport media (Table 3) to the Zavros laboratory (University of Arizona) for processing within 24 hours of collection. Resected PitNET tissues were washed with Dulbeccos Phosphate Buffered Saline (DPBS) supplemented with 1× Penicillin/Streptomycin, 1× Kanamycin and 1× Amphotericin/Gentamycin, minced into smaller pieces, and incubated with digestion buffer (Dulbecco's Modified Eagle Medium/Nutrient Mixture F-12 (DMEM/F12) supplemented with 0.4% Collagenase 2, 0.1% Hyaluronic Acid, 0.03% Trypsin). The tissue was incubated with Accutase (Thermo Fisher Scientific) for a further 5 minutes, and the cells were pelleted and washed with DPBS supplemented with antibiotics. Dissociated cells were then seeded as Matrigel™ domes in culture dishes and overlaid with growth media (Table 4). Media was replaced every 3 days and organoids were harvested for downstream experiments or passaged after 15 days of culture (FIG. 1B).
Sonic Hedgehog (SHH) was withdrawn from the organoid growth media 16 hours prior to treatment. […] The IC50 values used for each hPITO line for each drug were determined based on dose responses (FIG. 12). […]

FKBP5 = FKBP5 expression (GR target gene, qRT-PCR) in PitNET organoids; conditions: 48 h, FIG. 16A-C; for differential expression of FKBP5: PitNET organoids (iPSCctrl, iPSCUSP48MV, iPSCUSP8)
Method: as §1
RNA was extracted from PitNET tissue or iPSC generated organoids using TRI Reagent® (Molecular Research Center Inc TR118) and the High Capacity cDNA Reverse Transcription Kit (Applied Biosystems, Foster City, CA) was used for cDNA synthesis of RNA following the recommended protocol. For each sample, 60 ng RNA was reverse transcribed to yield approximately […] total cDNA that was then used for the qRT-PCR. Pre-designed real-time polymerase chain reaction assays were purchased for the following genes: TPit (Thermo Fisher Scientific 4331182 Hs00193027), SF1 (Thermo Fisher Scientific 4331182 Hs00610436), SSTR2 (Thermo Fisher Scientific 4331182 Hs00265624_s1), SSTR5 (Thermo Fisher Scientific 4331182 Hs00990407_s1), POMC (Thermo Fisher Scientific 4331182 Hs01596743_ml), hPRT (Thermo Fisher Scientific 4331182 Hs02800695_ml), and FKBP5 (Thermo Fisher Scientific 4331182 Hs01561006_m1). Polymerase chain reaction amplifications were performed in a total volume of 20 μL containing 20× TaqMan Expression Assay primers, 2× TaqMan Universal Master Mix (Applied Biosystems, TaqMan® Gene Expression Systems), and cDNA template. Each polymerase chain reaction amplification was performed in triplicate wells in a StepOne Real-Time PCR System (Applied Biosystems) by using the following conditions: 500C 2 minutes, 95° C. […] Fold change was calculated as the following: (Ct-Ct high)=n target, 2ntarget/2nHPRT=fold change where Ct=threshold cycle. The results were expressed as average fold change in or differential gene expression relative to control, with HPRT used as an internal control according to Livak and Schmittgen.

Row | Structure (SMILES) | magnitude of SSTR5 induction, relacorilant vs mifepristone (SSTR5) | percentage of SSTR5 positive cells (SSTR5) | sensitization of organoids to pasireotide (ACTH; CD PitNET tissue derived organoids) | differential expression of FKBP5 (FKBP5) | magnitude of FKBP5 inhibition, compared to mifepristone (FKBP5; PitNET organoids) | number of ACTH expressing cells / ACTH (ACTH; hPITO, 48 h, FIGS. 9I, J)
1 | Cn1cc(S(=O)(=O)N2CCC3=Cc4c(cnn4-c4ccc(F)cc4)C[C@]3(C(=O)c3cc(C(F)(F)F)ccn3)C2)cn1 [relacorilant, (R)-(1-(4-fluorophenyl)-6-((1-methyl-1H-pyrazol-4-yl)sulfonyl)-4,4a,5,6,7,8-hexahydro-1H-pyrazolo[3,4-g]isoquinolin-4a-yl) (4-(trifluoromethyl)pyridin-2-yl) methanone] | significantly greater than that of mifepristone | significant increase | sensitizes CD PitNET tissue derived organoids to pasireotide; also recorded: sensitized organoid tumor cells to suppression of ACTH by pasireotide | significantly reduced | significantly greater | –
2 | CC#C[C@]1(O)CC[C@H]2[C@@H]3CCC4=CC(=O)CCC4=C3[C@@H](c3ccc(N(C)C)cc3)C[C@@]21C [mifepristone, 11β-(4-dimethylaminophenyl)-17ß-hydroxy-17α-(1-propynyl)-estra-4,9-dien-3-one] | – | significant increase | – | significantly reduced | – | significantly increased the number of ACTH expressing cells
